These results are taken from ChEMBL document CHEMBL3137667, “[Drug-induced liver injury; fourteenth updated edition of the bibliographic database of liver injuries and related drugs]” (Gastroenterol Clin Biol, 2004).

Data set [1] is described as follows: Highest frequency of moderate liver toxicity observed during clinical trials, expressed as a percentage. [column '% BIOL' in source]. To be noted: human.
Data set [2] can be described thus: Highest frequency of acute liver toxicity observed during clinical trials, expressed as a percentage. [column '% AIGUE' in source]. The following applies: human.
The nature of data set [3]: Proposed mechanism(s) of liver damage. [column 'MEC' in source]. To be noted: human.
For data set [4] the following is noted: human, serum.
For data set [5] the following is noted: human, serum. This is another data set of the same source.
The conditions of data set [6]: human.
For data set [7] the following is noted: human. The source holds these as a separate data set.
For data set [8] the following is noted: human. This is another data set of the same source.
For data set [9] the following is noted: human, serum, 4383 h.
For data set [10] the following is noted: human. The source holds these as a separate data set.
For data set [11] the following is noted: human. The source holds these as a separate data set.
For data set [12] the following is noted: human. This is another data set of the same source.
The conditions of data set [13]: human. This is another data set of the same source.
For data set [14] the following is noted: human. The source holds these as a separate data set.
The conditions of data set [15]: human. The source holds these as a separate data set.
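Wherever Hepatotoxicity (association with vascular disease) is given: count of indexed literature references reporting vascular liver injury in humans, e.g. peliosis hepatitis, hepatic veno-occlusive disease or Budd-Chiari syndrome.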
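Wherever Hepatotoxicity (benign tumour) is given: value is a count of indexed literature references citing a benign tumour confirmed by histopathology.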
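Wherever Hepatotoxicity (choleostasis) is given: human cholestatic liver injury, shown by histopathology or by peak ALT or AST elevation over alkaline phosphatase ratio below 2, value counts indexed literature reports.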
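Wherever Hepatotoxicity (chronic liver disease) is given: chronic liver injury confirmed by histopathology or persistently raised serum aminotransferase activity beyond 6 months, value given as the count of indexed literature references.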
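Wherever Hepatotoxicity (cirrhosis) is given: value is a count of indexed literature references reporting cirrhosis confirmed by histopathology.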
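Wherever Hepatotoxicity (cytolytic) is given: human cytolytic liver injury, shown by histopathology or by a ratio above 5 of peak ALT or AST elevation to alkaline phosphatase elevation, value counts indexed references.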
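Wherever Hepatotoxicity (granulomatous hepatitis) is given: value is a count of indexed literature references reporting granulomatous liver disease confirmed by histopathology.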
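Wherever Hepatotoxicity (malignant tumour) is given: malignant tumour confirmed by histopathology, value gives the count of indexed literature references reporting it.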
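Wherever Hepatotoxicity (severe hepatitis) is given: human clinical data: severe hepatitis, meaning potentially life-threatening liver failure or clinically observed cases, the value counts how many indexed literature references report it.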
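Wherever Hepatotoxicity (steatosis) is given: steatosis confirmed by histopathology, value is the count of indexed references.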

Take `CS(=O)(=O)c1ccc([C@@H](O)[C@@H](CO)NC(=O)C(Cl)Cl)cc1` [THIAMPHENICOL]: the “Hepatotoxicity (moderate)” value was 0% in data set [1] and 0 in data set [4]. Further, the figures for the “Hepatotoxicity (acute)” value in data set [2] and in [5] were 0% and 1, respectively. In addition, in data set [3], the “Hepatotoxicity (mechanism)” value is “Allergic”. For the same compound, the “Hepatotoxicity (cytolytic)” value in data set [6] worked out at 0. For the same compound, the “Hepatotoxicity (choleostasis)” value in data set [7] worked out at 0. For the same compound, in data set [8], the “Hepatotoxicity (severe hepatitis)” value is 0. The “Hepatotoxicity (chronic liver disease)” value in [9] was found to be 0. For the same compound, the “Hepatotoxicity (cirrhosis)” value in data set [10] worked out at 0. Besides, in data set [11], the “Hepatotoxicity (granulomatous hepatitis)” value came to 0. In data set [12], the “Hepatotoxicity (association with vascular disease)” value was 0. In data set [13], the “Hepatotoxicity (steatosis)” value amounted to 0. For the same compound, the “Hepatotoxicity (malignant tumour)” value in [14] amounted to 0. Moreover, the “Hepatotoxicity (benign tumour)” value in [15] is listed as 0.

In the case of `C[C@@](O)(/C=C/[C@H]1CC=CC(=O)O1)[C@@H](C[C@@H](O)\C=C/C=C\C=C\CO)OP(=O)(O)O` [FOSTRIECIN], the “Hepatotoxicity (moderate)” value stood at 5% in data set [1] and 1 in [4]. The figures for the “Hepatotoxicity (acute)” value in [2] and in data set [5] were 0% and 0, respectively. Further, the “Hepatotoxicity (mechanism)” value in data set [3] is given as “Dose-dependant”. Moreover, the “Hepatotoxicity (cytolytic)” value in data set [6] was 0. Besides, in [7], the “Hepatotoxicity (choleostasis)” value is listed as 0. The “Hepatotoxicity (severe hepatitis)” value in [8] was found to be 0. Besides, the “Hepatotoxicity (chronic liver disease)” value in data set [9] is listed as 0. In addition, the “Hepatotoxicity (cirrhosis)” value in data set [10] came to 0. Further, the “Hepatotoxicity (granulomatous hepatitis)” value in data set [11] is on record as 0. In data set [12], the “Hepatotoxicity (association with vascular disease)” value amounted to 0. Also, in [13], the “Hepatotoxicity (steatosis)” value was determined as 0. In data set [14], the “Hepatotoxicity (malignant tumour)” value stood at 0. The “Hepatotoxicity (benign tumour)” value in data set [15] turned out to be 0.

`COc1ccc(OC)c(Cc2cnc3nc(N)nc(N)c3c2C)c1` [PIRITREXIM]: the entries for the “Hepatotoxicity (moderate)” value in data set [1] and in [4] were 12.1% and 7, respectively. The “Hepatotoxicity (acute)” value in data set [2] worked out at 0%; in data set [5], 0. The “Hepatotoxicity (mechanism)” value in data set [3] is “Dose-dependant”. Also, in data set [6], the “Hepatotoxicity (cytolytic)” value came out at 0. The “Hepatotoxicity (choleostasis)” value in data set [7] amounted to 0. In addition, the “Hepatotoxicity (severe hepatitis)” value in data set [8] came to 0. Moreover, in [9], the “Hepatotoxicity (chronic liver disease)” value amounted to 0. Moreover, the “Hepatotoxicity (cirrhosis)” value in data set [10] worked out at 0. The “Hepatotoxicity (granulomatous hepatitis)” value in data set [11] is 0. The “Hepatotoxicity (association with vascular disease)” value in data set [12] was 0. Also, the “Hepatotoxicity (steatosis)” value in data set [13] is listed as 0. In addition, the “Hepatotoxicity (malignant tumour)” value in [14] stood at 0. The “Hepatotoxicity (benign tumour)” value in [15] came out at 0.

On to `CN1[C@@H]2CC[C@H]1C[C@@H](OC(=O)c1c[nH]c3ccccc13)C2` [TROPISETRON], for which the “Hepatotoxicity (moderate)” value worked out at 40.9% in [1] and 3 in data set [4]. Moreover, the results for the “Hepatotoxicity (acute)” value in [2] and in [5] were 4.5% and 1, respectively. Moreover, the “Hepatotoxicity (mechanism)” value in data set [3] is recorded as “Dose-dependant”. In addition, in data set [6], the “Hepatotoxicity (cytolytic)” value is reported as 1. The “Hepatotoxicity (choleostasis)” value in data set [7] is given as 0. Further, the “Hepatotoxicity (severe hepatitis)” value in data set [8] came out at 0. The “Hepatotoxicity (chronic liver disease)” value in [9] is listed as 0. For the same compound, in [10], the “Hepatotoxicity (cirrhosis)” value is 0. Besides, in [11], the “Hepatotoxicity (granulomatous hepatitis)” value came to 0. Further, in [12], the “Hepatotoxicity (association with vascular disease)” value is 0. Moreover, the “Hepatotoxicity (steatosis)” value in [13] was 0. In [14], the “Hepatotoxicity (malignant tumour)” value is 0. For the same compound, in data set [15], the “Hepatotoxicity (benign tumour)” value is given as 0.

As for `CCCCNC(=N)NC(=N)N` [BUFORMIN], the “Hepatotoxicity (moderate)” value in [1] (Liver) was found to be 0%; in data set [4], 0. Further, the “Hepatotoxicity (acute)” value in [2] (Liver) came to 0%; in data set [5], 1. Further, the “Hepatotoxicity (mechanism)” value in data set [3] (Liver) is “Allergic”. The “Hepatotoxicity (cytolytic)” value in data set [6] (Liver) turned out to be 0. In [7] (Liver), the “Hepatotoxicity (choleostasis)” value is on record as 0. In data set [8] (Liver), the “Hepatotoxicity (severe hepatitis)” value is 0. In addition, the “Hepatotoxicity (chronic liver disease)” value in [9] was 0. In data set [10], the “Hepatotoxicity (cirrhosis)” value was determined as 0. Besides, in [11] (Liver), the “Hepatotoxicity (granulomatous hepatitis)” value came to 0. Besides, the “Hepatotoxicity (association with vascular disease)” value in [12] came to 0. The “Hepatotoxicity (steatosis)” value in data set [13] was found to be 0. The “Hepatotoxicity (malignant tumour)” value in data set [14] came to 0. Also, the “Hepatotoxicity (benign tumour)” value in data set [15] was determined as 0.

Turning to `O=C[C@H](O)[C@@H](O)[C@H](O)[C@H](O)CO[C@H]1O[C@H](CO[C@H]2O[C@H](CO)[C@@H](O)[C@H](O)[C@H]2O)[C@@H](O)[C@H](O)[C@H]1O` [DEXTRAN], the “Hepatotoxicity (moderate)” value in data set [1] is on record as 43.7%; in data set [4], 2. Moreover, the “Hepatotoxicity (acute)” value is reported as 0% in data set [2] and 0 in data set [5]. Moreover, the “Hepatotoxicity (mechanism)” value in data set [3] is recorded as “Dose-dependant”. Further, the “Hepatotoxicity (cytolytic)” value in [6] is listed as 0. For the same compound, in data set [7], the “Hepatotoxicity (choleostasis)” value turned out to be 0. In addition, in data set [8], the “Hepatotoxicity (severe hepatitis)” value amounted to 0. In data set [9], the “Hepatotoxicity (chronic liver disease)” value came out at 0. Further, the “Hepatotoxicity (cirrhosis)” value in data set [10] is 0. For the same compound, in [11], the “Hepatotoxicity (granulomatous hepatitis)” value came out at 0. In addition, the “Hepatotoxicity (association with vascular disease)” value in [12] is given as 0. For the same compound, in data set [13], the “Hepatotoxicity (steatosis)” value is on record as 0. In addition, the “Hepatotoxicity (malignant tumour)” value in [14] was 0. Also, the “Hepatotoxicity (benign tumour)” value in [15] is reported as 0.

As for `Cc1cnc(NC(=O)C2=C(O)c3ccccc3S(=O)(=O)N2C)s1` [MELOXICAM], the “Hepatotoxicity (moderate)” value in data set [1] (Liver) came to 11.5%; in data set [4] it was 6. In addition, the “Hepatotoxicity (acute)” value in data set [2] (Liver) worked out at 0%; in data set [5], 1. The “Hepatotoxicity (mechanism)” value in data set [3] is listed as “Dose-dependant”. Besides, the “Hepatotoxicity (cytolytic)” value in [6] came to 0. The “Hepatotoxicity (choleostasis)” value in [7] was 0. In addition, the “Hepatotoxicity (severe hepatitis)” value in data set [8] (Liver) was determined as 0. In data set [9], the “Hepatotoxicity (chronic liver disease)” value came to 0. Moreover, the “Hepatotoxicity (cirrhosis)” value in data set [10] amounted to 0. Moreover, in data set [11], the “Hepatotoxicity (granulomatous hepatitis)” value stood at 0. In data set [12], the “Hepatotoxicity (association with vascular disease)” value came to 0. Moreover, the “Hepatotoxicity (steatosis)” value in data set [13] stood at 0. Also, the “Hepatotoxicity (malignant tumour)” value in data set [14] is 0. Also, in [15], the “Hepatotoxicity (benign tumour)” value amounted to 0.

With `COc1ccccc1Oc1c(NS(=O)(=O)c2ccc(C(C)(C)C)cc2)nc(-c2ncccn2)nc1OCCO` [BOSENTAN], the “Hepatotoxicity (moderate)” value in data set [1] was found to be 15%; in data set [4], 12. Besides, the “Hepatotoxicity (acute)” value in data set [2] amounted to 5.3%; in data set [5] it was 5. Also, the “Hepatotoxicity (mechanism)” value in [3] is on record as “Dose-dependant”. In addition, the “Hepatotoxicity (cytolytic)” value in [6] is on record as 4. Moreover, in [7], the “Hepatotoxicity (choleostasis)” value was 1. In data set [8], the “Hepatotoxicity (severe hepatitis)” value is 0. Moreover, the “Hepatotoxicity (chronic liver disease)” value in [9] is on record as 0. In addition, in data set [10], the “Hepatotoxicity (cirrhosis)” value came to 0. Also, the “Hepatotoxicity (granulomatous hepatitis)” value in data set [11] worked out at 0. Besides, the “Hepatotoxicity (association with vascular disease)” value in data set [12] is reported as 0. The “Hepatotoxicity (steatosis)” value in data set [13] was 0. The “Hepatotoxicity (malignant tumour)” value in [14] was 0. The “Hepatotoxicity (benign tumour)” value in data set [15] is given as 0.

Turning to `CC1(C)S[C@@H]2[C@H](NC(=O)C(c3ccccc3)S(=O)(=O)O)C(=O)N2[C@H]1C(=O)O` (stereo not given in full) [SULBENICILLIN], the figures for the “Hepatotoxicity (moderate)” value in data set [1] and in data set [4] were 6.7% and 3, respectively. For the same compound, the “Hepatotoxicity (acute)” value in data set [2] worked out at 1%; in data set [5], 3. Moreover, the “Hepatotoxicity (mechanism)” value in data set [3] is given as “Allergic”. Moreover, the “Hepatotoxicity (cytolytic)” value in data set [6] was found to be 0. Moreover, the “Hepatotoxicity (choleostasis)” value in data set [7] was found to be 2. In [8], the “Hepatotoxicity (severe hepatitis)” value is on record as 0. The “Hepatotoxicity (chronic liver disease)” value in [9] was 0. Moreover, in data set [10], the “Hepatotoxicity (cirrhosis)” value is recorded as 0. Further, the “Hepatotoxicity (granulomatous hepatitis)” value in data set [11] came to 0. Besides, in [12], the “Hepatotoxicity (association with vascular disease)” value is recorded as 0. Moreover, the “Hepatotoxicity (steatosis)” value in [13] is listed as 0. In addition, in [14], the “Hepatotoxicity (malignant tumour)” value worked out at 0. The “Hepatotoxicity (benign tumour)” value in data set [15] is 0.

`O=C(Cn1c(=O)sc2ccc(Cl)cc21)N1CCN(CCO)CC1` [TIARAMIDE]: the “Hepatotoxicity (moderate)” value in [1] worked out at 0%; in data set [4] it was 0. The “Hepatotoxicity (acute)” value in [2] is listed as 0%; in data set [5], 1. In addition, the “Hepatotoxicity (mechanism)” value in [3] is reported as “Allergic”. For the same compound, in data set [6], the “Hepatotoxicity (cytolytic)” value was 1. Moreover, in [7], the “Hepatotoxicity (choleostasis)” value is listed as 1. Moreover, the “Hepatotoxicity (severe hepatitis)” value in data set [8] was determined as 0. In [9], the “Hepatotoxicity (chronic liver disease)” value is recorded as 0. Moreover, the “Hepatotoxicity (cirrhosis)” value in data set [10] was found to be 0. The “Hepatotoxicity (granulomatous hepatitis)” value in [11] came out at 0. In data set [12], the “Hepatotoxicity (association with vascular disease)” value came out at 0. Besides, the “Hepatotoxicity (steatosis)” value in [13] amounted to 0. Further, the “Hepatotoxicity (malignant tumour)” value in data set [14] came out at 0. Besides, the “Hepatotoxicity (benign tumour)” value in data set [15] stood at 0.

As for INTERLEUKIN 6, the entries for the “Hepatotoxicity (moderate)” value in [1] and in data set [4] were 55% and 9, respectively. The “Hepatotoxicity (acute)” value in [2] is reported as 0%; in data set [5], 2. Further, in data set [3], the “Hepatotoxicity (mechanism)” value is “Dose-dependant”. The “Hepatotoxicity (cytolytic)” value in data set [6] is recorded as 0. For the same compound, the “Hepatotoxicity (choleostasis)” value in data set [7] came out at 1. For the same compound, the “Hepatotoxicity (severe hepatitis)” value in [8] came to 0. Further, the “Hepatotoxicity (chronic liver disease)” value in data set [9] was determined as 0. Also, in data set [10], the “Hepatotoxicity (cirrhosis)” value was 0. Moreover, the “Hepatotoxicity (granulomatous hepatitis)” value in [11] is 0. Besides, in data set [12], the “Hepatotoxicity (association with vascular disease)” value stood at 0. Moreover, in data set [13], the “Hepatotoxicity (steatosis)” value is on record as 0. Also, in [14], the “Hepatotoxicity (malignant tumour)” value worked out at 0. Further, the “Hepatotoxicity (benign tumour)” value in data set [15] stood at 0.
